The numbers were not newly measured in patent US7390505B2, “Nanoparticulate topiramate formulations” (Elan Pharma International, Ltd., priority 2003, dated 2008), which cites them from elsewhere.

For data set [1] the following is noted: human, in vivo.
Assay in data set [2]: not given
This is another data set of the same source.

As for `CC1(C)O[C@@H]2[C@@H](CO[C@@]3(COS(N)(=O)=O)OC(C)(C)O[C@@H]23)O1` [Topiramate, 2,3:4,5-Di-O-isopropylidene-β-D-fructopyranose sulfamate], the “solubility in organic solvents” value (acetone, chloroform, dimethylsulfoxide, and ethanol) is listed as “freely soluble”. For the same compound, under “solutions containing sodium hydroxide or sodium phosphate, pH of 9 to 10”, the “solubility in alkaline solutions” value is “most soluble”. Moreover, the “incidence of ataxia, impaired concentration, confusion, dizziness, fatigue, paraesthesia, somnolence and abnormal thinking” value in data set [1] is ≥ 5 % of patients. Further, the “patients who withdrew because of side effects” value in data set [2] (96 mg/d or 192 mg/d) is reported as 19%. In addition, in data set [2] (in vivo), the “withdrawal due to depression” value is 3%, the “withdrawal due to difficulty with memory” value is listed as 3% and the “withdrawal due to paraesthesia” value is on record as 5 % of patients.
